How the values were obtained:
microorganisms [1] = assay: Peptide activities: binding, antimicrobial, growth or phenotype altering (Table 8)
Source text: In certain embodiments, peptides described herein can have multiple activities. Thus for example, a peptide can have both binding/targeting activity and antimicrobial activity. Such peptides can be used, e.g., in a chimeric construct, for any or all of these properties. Thus, for example, a peptide designated “B” in Table 8 can be used as a targeting peptide. If it is also designated G or M it can also be used for antimicrobial activity.

microorganisms [2] = assay: Morphology, biofilm and growth disruption by peptides (Table 5); type: cell-based; set-up: key: A: Peptide aggregates; B: Less hyphal formation; Clumps; Diffuse clumps and small polyps; F: Diffuse growth; H: Thin; I: Growth inhibition; Microcolony formation; Rippled; Small polyps; Thick; W: Halo formation on top, microlonies on bottom
Source text: In certain embodiments peptides that induce alterations in phenotype or other biological activities can also be used as antimicrobial effector moieties.

## AL C SVIKAIEL GIINVHL Q [PF-366]
Microorganisms [1]
  Activities: G B
Microorganisms [2]; C. jejuni
  Organism, effect: C. jejuni (D)
Microorganisms [2]; E. coli
  Organism, effect: E. coli (C)
Microorganisms [2]; E. faecalis
  Organism, effect: E. faecalis (C)
Microorganisms [2]; MRSA
  Organism, effect: MRSA (D)
Microorganisms [2]; P. aeruginosa
  Organism, effect: P. aeruginosa (A)
Microorganisms [2]; S. epidermidis
  Organism, effect: S. epidermidis (R)
Microorganisms [2]; S. pneumoniae
  Organism, effect: S. pneumoniae (C)

## PF-012 (WRGPNTEAGGKSANNIVQVGGAPT; Peptide with targeting and/or antimicrobial activity)
Microorganisms [1]
  Activities: G B
Microorganisms [2]; C. jeikeium
  Organism, effect: C. jeikeium (A)
Microorganisms [2]; M. luteus
  Organism, effect: M. luteus (C)
Microorganisms [2]; MRSA
  Organism, effect: MRSA (R)
Microorganisms [2]; S. epidermidis
  Organism, effect: S. epidermidis (S)

## PF-022 (MINELKNKNSGIMNNYVVTKESKL; Peptide with targeting and/or antimicrobial activity)
Microorganisms [1]
  Activities: G B
Microorganisms [2]; C. jeikeium
  Organism, effect: C. jeikeium (A)
Microorganisms [2]; M. luteus
  Organism, effect: M. luteus (A)
Microorganisms [2]; MRSA
  Organism, effect: MRSA (R)
Microorganisms [2]; S. epidermidis
  Organism, effect: S. epidermidis (D)

## PF-030 (MTCHQAPTTTHQSNMA; Peptide with targeting and/or antimicrobial activity)
Microorganisms [1]
  Activities: G B
Microorganisms [2]; C. jeikeium
  Organism, effect: C. jeikeium (C)
Microorganisms [2]; M. luteus
  Organism, effect: M. luteus (C)
Microorganisms [2]; MRSA
  Organism, effect: MRSA (R)
Microorganisms [2]; S. epidermidis
  Organism, effect: S. epidermidis (D)

## PF-042 (LLLSYFRYTGALLQSLF; Peptide with targeting and/or antimicrobial activity)
Microorganisms [1]
  Activities: G B
Microorganisms [2]; C. jeikeium
  Organism, effect: C. jeikeium (S)
Microorganisms [2]; M. luteus
  Organism, effect: M. luteus (C)
Microorganisms [2]; MRSA
  Organism, effect: MRSA (R)
Microorganisms [2]; S. epidermidis
  Organism, effect: S. epidermidis (D)

## PF-056 (AEQLFGKQKQRGVDLFLNRLTIILSILFFVLMICISYLGM; Peptide with targeting and/or antimicrobial activity)
Microorganisms [1]
  Activities: G B
Microorganisms [2]; B. subtilis
  Organism, effect: B. subtilis (C)
Microorganisms [2]; C. albicans
  Organism, effect: C. albicans (B)
Microorganisms [2]; C. jeikeium
  Organism, effect: C. jeikeium (S)
Microorganisms [2]; C. jejuni
  Organism, effect: C. jejuni (D)
Microorganisms [2]; M. luteus
  Organism, effect: M. luteus (D)
Microorganisms [2]; MRSA
  Organism, effect: MRSA (M)
Microorganisms [2]; S. epidermidis
  Organism, effect: S. epidermidis (D)
Microorganisms [2]; S. pneumoniae
  Organism, effect: S. pneumoniae (D)

## PF-057 (TMIVISIPRFEEYMKARHKKWM; Peptide with targeting and/or antimicrobial activity)
Microorganisms [1]
  Activities: G B
Microorganisms [2]; C. albicans
  Organism, effect: C. albicans (A)
Microorganisms [2]; C. jeikeium
  Organism, effect: C. jeikeium (A)
Microorganisms [2]; C. jejuni
  Organism, effect: C. jejuni (D)
Microorganisms [2]; E. coli
  Organism, effect: E. coli (M)
Microorganisms [2]; E. faecalis
  Organism, effect: E. faecalis (A)
Microorganisms [2]; M. luteus
  Organism, effect: M. luteus (C)
Microorganisms [2]; MRSA
  Organism, effect: MRSA (M)
Microorganisms [2]; S. epidermidis
  Organism, effect: S. epidermidis (D)
Microorganisms [2]; S. pneumoniae
  Organism, effect: S. pneumoniae (R)

## PF-063 (IAAIIVLVLFQKGLLQIFNWILIQLQ; Peptide with targeting and/or antimicrobial activity)
Microorganisms [1]
  Activities: G B
Microorganisms [2]; B. subtilis
  Organism, effect: B. subtilis (C)
Microorganisms [2]; C. jeikeium
  Organism, effect: C. jeikeium (D)
Microorganisms [2]; C. jejuni
  Organism, effect: C. jejuni (D)
Microorganisms [2]; M. luteus
  Organism, effect: M. luteus (R)
Microorganisms [2]; MRSA
  Organism, effect: MRSA (M)
Microorganisms [2]; P. aeruginosa
  Organism, effect: P. aeruginosa (A)
Microorganisms [2]; S. epidermidis
  Organism, effect: S. epidermidis (R)
Microorganisms [2]; S. pneumoniae
  Organism, effect: S. pneumoniae (D)

## PF-068 (SHLINNFGLSVINPSTPICLNFSPVFNLLTVYGITCN; Peptide with targeting and/or antimicrobial activity)
Microorganisms [1]
  Activities: G B
Microorganisms [2]; B. subtilis
  Organism, effect: B. subtilis (A)
Microorganisms [2]; C. jeikeium
  Organism, effect: C. jeikeium (R)
Microorganisms [2]; C. jejuni
  Organism, effect: C. jejuni (D)
Microorganisms [2]; E. coli
  Organism, effect: E. coli (A)
Microorganisms [2]; E. faecalis
  Organism, effect: E. faecalis (A)
Microorganisms [2]; M. luteus
  Organism, effect: M. luteus (D)
Microorganisms [2]; MRSA
  Organism, effect: MRSA (M)
Microorganisms [2]; S. epidermidis
  Organism, effect: S. epidermidis (M)
Microorganisms [2]; S. pneumoniae
  Organism, effect: S. pneumoniae (D)

## PF-124 (MADGQIAAIAKLHGVPVATRNIRHFQSFGVELINPWSG; Peptide with targeting and/or antimicrobial activity)
Microorganisms [1]
  Activities: G B
Microorganisms [2]; C. jeikeium
  Organism, effect: C. jeikeium (R)
Microorganisms [2]; S. epidermidis
  Organism, effect: S. epidermidis (C)

## PF-354 (FTFSKCRASNGRGFGTLWL; Peptide with targeting and/or antimicrobial activity)
Microorganisms [1]
  Activities: G B
Microorganisms [2]; MRSA
  Organism, effect: MRSA (H)

## PF-355 (WIAIGLLLYFSLKNQ; Peptide with targeting and/or antimicrobial activity)
Microorganisms [1]
  Activities: G B
Microorganisms [2]; C. jejuni
  Organism, effect: C. jejuni (D)
Microorganisms [2]; E. coli
  Organism, effect: E. coli (C)
Microorganisms [2]; E. faecalis
  Organism, effect: E. faecalis (D)
Microorganisms [2]; MRSA
  Organism, effect: MRSA (A)
Microorganisms [2]; P. aeruginosa
  Organism, effect: P. aeruginosa (A)
Microorganisms [2]; S. epidermidis
  Organism, effect: S. epidermidis (C)
Microorganisms [2]; S. pneumoniae
  Organism, effect: S. pneumoniae (D)

## PF-356 (VSIKIGAIVIGMIGLMELLTE; Peptide with targeting and/or antimicrobial activity)
Microorganisms [1]
  Activities: G B
Microorganisms [2]; C. jejuni
  Organism, effect: C. jejuni (D)
Microorganisms [2]; E. faecalis
  Organism, effect: E. faecalis (R)
Microorganisms [2]; MRSA
  Organism, effect: MRSA (C)
Microorganisms [2]; P. aeruginosa
  Organism, effect: P. aeruginosa (A)
Microorganisms [2]; S. epidermidis
  Organism, effect: S. epidermidis (S)
Microorganisms [2]; S. pneumoniae
  Organism, effect: S. pneumoniae (R)

## PF-357 (MLTIIIGFIFWTMTLMLGYLIGEREGRKHE; Peptide with targeting and/or antimicrobial activity)
Microorganisms [1]
  Activities: G B
Microorganisms [2]; M. luteus
  Organism, effect: M. luteus (C)
Microorganisms [2]; MRSA
  Organism, effect: MRSA (M)
Microorganisms [2]; S. epidermidis
  Organism, effect: S. epidermidis (M)
Microorganisms [2]; S. pneumoniae
  Organism, effect: S. pneumoniae (M)

## PF-374 (HLFFVKGMFILCQKNQINDE; Peptide with targeting and/or antimicrobial activity)
Microorganisms [1]
  Activities: G B
Microorganisms [2]; E. coli
  Organism, effect: E. coli (C)
Microorganisms [2]; E. faecalis
  Organism, effect: E. faecalis (C)
Microorganisms [2]; MRSA
  Organism, effect: MRSA (M)
Microorganisms [2]; S. epidermidis
  Organism, effect: S. epidermidis (C)

## PF-375 (MDSAKAQTMRTDWLAVSCLVASAYLRSMLA; Peptide with targeting and/or antimicrobial activity)
Microorganisms [1]
  Activities: G B
Microorganisms [2]; E. coli
  Organism, effect: E. coli (C)
Microorganisms [2]; E. faecalis
  Organism, effect: E. faecalis (C)
Microorganisms [2]; MRSA
  Organism, effect: MRSA (C)
Microorganisms [2]; S. epidermidis
  Organism, effect: S. epidermidis (C)

## PF-376 (MTVFEALMLAIAFATLIVKISNKNDKK; Peptide with targeting and/or antimicrobial activity)
Microorganisms [1]
  Activities: G B
Microorganisms [2]; E. coli
  Organism, effect: E. coli (C)
Microorganisms [2]; E. faecalis
  Organism, effect: E. faecalis (C)
Microorganisms [2]; MRSA
  Organism, effect: MRSA (C)
Microorganisms [2]; S. epidermidis
  Organism, effect: S. epidermidis (C)

## PF-379 (VFVVLFIIYLASKLLTKLFPIKK; Peptide with targeting and/or antimicrobial activity)
Microorganisms [1]
  Activities: G B
Microorganisms [2]; E. coli
  Organism, effect: E. coli (C)
Microorganisms [2]; E. faecalis
  Organism, effect: E. faecalis (C)
Microorganisms [2]; MRSA
  Organism, effect: MRSA (C)
Microorganisms [2]; S. epidermidis
  Organism, effect: S. epidermidis (C)

## PF-380 (KKIIPLITLFVVTLVG; Peptide with targeting and/or antimicrobial activity)
Microorganisms [1]
  Activities: G B
Microorganisms [2]; C. jejuni
  Organism, effect: C. jejuni (D)
Microorganisms [2]; E. coli
  Organism, effect: E. coli (C)
Microorganisms [2]; E. faecalis
  Organism, effect: E. faecalis (C)
Microorganisms [2]; MRSA
  Organism, effect: MRSA (D)
Microorganisms [2]; P. aeruginosa
  Organism, effect: P. aeruginosa (A)
Microorganisms [2]; S. epidermidis
  Organism, effect: S. epidermidis (C)
Microorganisms [2]; S. pneumoniae
  Organism, effect: S. pneumoniae (D)

## PF-386 (FTLTLITTIVAILNYKDKKK; Peptide with targeting and/or antimicrobial activity)
Microorganisms [1]
  Activities: G B
Microorganisms [2]; E. coli
  Organism, effect: E. coli (C)
Microorganisms [2]; E. faecalis
  Organism, effect: E. faecalis (C)
Microorganisms [2]; MRSA
  Organism, effect: MRSA (C)
Microorganisms [2]; S. epidermidis
  Organism, effect: S. epidermidis (C)

## PF-439 (RVLVLKKFHGIMDGNRNVAVFFVGQ; Peptide with targeting and/or antimicrobial activity)
Microorganisms [1]
  Activities: G B
Microorganisms [2]; E. coli
  Organism, effect (morphology, biofilm and growth disruption): E. coli (R)
Microorganisms [2]; E. faecalis
  Organism, effect (morphology, biofilm and growth disruption): E. faecalis (C)
Microorganisms [2]; MRSA
  Organism, effect (morphology, biofilm and growth disruption): MRSA (M)
Microorganisms [2]; S. epidermidis
  Organism, effect (morphology, biofilm and growth disruption): S. epidermidis (C)
Microorganisms [2]; S. pneumoniae
  Organism, effect (morphology, biofilm and growth disruption): S. pneumoniae (R)

— patent US9597407B2, “Targeted antimicrobial moieties” (C3 Jian, Inc., priority 2009, dated 2017)
